Consider 3 compounds from patent US20220331309A1, “PHARMACEUTICAL COMPOSITION FOR TREATING INSOMNIA” (priority 2019, published 2022).

Structures are written as SMILES.

Usually AUC(0-inf) stands for the area under the concentration-time curve extrapolated to infinity. For orientation: Cmax means the peak of the concentration-time curve.

The test system of data set [1] is CYP3A. The following applies: FDA guidance classification; cited from earlier work.
The nature of data set [2]: Pharmacokinetics of lemborexant alone and in combination with itraconazole in healthy adults (Test Example 1-2). The following applies: for Cmax (geometric mean): healthy adults. Here is the method:
(§1) HPLC (pump: LC-10ADvp or LC 20AD, Autosampler SLL 20ACHT, SHIMADZU Corporation) mass spectrometer (API5000 or API5500, AB Sciex)
(§2) A 10 μL solution of an internal standard substance (lemborexant labeled with deuterium) was added to 100 μL of a human plasma, and the resulting mixture was convened into a basic condition with 10 μL of aqueous ammonia and was subjected to liquid-liquid extraction with methyl tert-butyl ether (MTBE). After stirring (for about 10 minutes) and centrifugation (about 14000 rpm, for about 10 minutes) were performed, the upper layer was evaporated into dryness at 30° C. under a nitrogen stream, and was redissolved with 200 μL of a mixed solution (50/50, v/v) of 0.1% formic acid-containing acetonitrile/water to prepare a sample for LC-MS/MS.
(§3) The measurement was performed in an MRM mode by positive detection of an electrospray ionization (ESI) method. […] A variety of parameters for AP15500/5500 Qtrap used are shown below. Ion spray Voltage: 5500 v, Curtain Gas 40, CAD 8, Gas1 70, Gas2 70, DP100, Dwell time 250 (parameters are not limited to these)
(§4) The lemborexant concentration in the plasma was calculated using an internal standard calibration curve created through inverse regression according to the method of least squares generated from the ratio of the peak area of lemborexant to that of the internal standard substance.
A single dose of 10 mg lemborexant was administered to fifteen healthy adults (males and females, 21 to 55 years old) (single administration of lemborexant); 200 mg of itraconazole was administered one time per day from Day 15 to Day 34 where the single administration of lemborexant was defined as Day 1; and a single dose of 10 mg lemborexant was administered on Day 22 (administration of lemborexant in combination with itraconazole).

The nature of data set [3]: Single dose administration test of lemborexant in healthy adults (Test Example 3). Format: in vivo, human. The following applies: for AUC(0-inf) / Cmax: human, plasma, oral. The method, then:
In 64 cases of healthy adults under a feed-deprived condition, the pharmacokinetics of lemborexant administered with single doses of 1, 2.5, 5, 10, 25, 50, 100, and 200 mg thereof was examined by a randomized, double-blinded, placebo-controlled, multi-stage single administration test. In each group, lemborexant was administered to six cases, and the placebo was administered to two cases.
The transition of the mean lemborexant concentration in the plasma when single doses of 1, […], 10, 25, 50, 100, and 200 mg lemborexant were administered to the healthy adults is shown in FIG. 1.

Data set [4] is described as follows: Pharmacokinetics of lemborexant alone and in combination with fluconazole in healthy adults (Test Example 1-1). The following applies: for Cmax (geometric mean): healthy adults. The method, then:
A single dose of 10 mg lemborexant was administered to fourteen healthy adults (males and females, 18 to 55 years old) (single administration of lemborexant); 200 mg of fluconazole was administered one time per day (two times only on Day 11) from Day 11 to Day 26 where the single administration of the lemborexant was defined as Day 1; and a single dose of 10 mg lemborexant was administered on Day 15 (administration of lemborexant in combination with fluconazole). The concentrations of lemborexant in the plasma during the single administration of lemborexant and during the administration of lemborexant in combination with fluconazole were measured with a high performance liquid chromatograph/tandem mass spectrometry (hereinafter, referred to as “LC-MS/MS”) under the following conditions to calculate the geometric means of the Cmax and the AUC (0-inf).
as §1, §2, §3, §4

Data set [5] is described as follows: Prediction of pharmacokinetics of 2.5 mg lemborexant in combination with agent moderately or strongly inhibiting CYP3A (Test Example 1-3, dose proportionality). Format: in vivo, human. The following applies: for AUC(0-inf) / Cmax: both sexes, human, plasma, oral; for AUC(0-inf): read-out: mean AUC (0-inf) achieved; for Cmax: read-out: mean Cmax achieved. The method, then: The results are shown in Tables 3 and 4 with the actually measured values of the single administration of 10 mg lemborexant in Sections (1-1) and (1-2) above.

[6] abbreviates: 10 mg lemborexant in combination with itraconazole.
The mark [7] stands for this setting: both, human, plasma, oral, 10 mg.
The mark [8] stands for this setting: combination with itraconazole vs single administration, 10 mg lemborexant.
Where [9] appears, read: single administration of 10 mg lemborexant, plasma.
[10] abbreviates: all administration groups, in average.
The mark [11] stands for this setting: 10 mg lemborexant in combination with fluconazole.
Where [12] appears, read: combination with fluconazole vs single administration, 10 mg lemborexant.
Setting [13] is: 2.5 mg lemborexant in combination with fluconazole.
[14] abbreviates: 2.5 mg lemborexant in combination with itraconazole.
The mark [15] stands for this setting: 2.5 mg lemborexant, lower to upper limit of 95% CI in combination with fluconazole.
Where [16] appears, read: 2.5 mg lemborexant, lower to upper limit of 95% CI in combination with itraconazole.

With `OC(Cn1cncn1)(Cn1cncn1)c1ccc(F)cc1F` [fluconazole], the “Classification of CYP3A inhibiting action of drug used in combination” value in data set [1] was “moderately”.

Consider `Cc1ncc(OC[C@@]2(c3cccc(F)c3)C[C@H]2C(=O)Nc2ccc(F)cn2)c(C)n1` [lemborexant, (1R,2S)-2-(((2,4-dimethylpyrimidin-5-yl)oxy)methyl)-2-(3-fluorophenyl)-N-(5-fluoropyridin-2-yl)cyclopropanecarboxamide], for which the entries for the “increase of mean AUC (0-inf) compared to single administration” value in data set [2] (setting [6]) and in data set [4] (setting [11]) were 270% and 317%, respectively. The “increase of mean Cmax compared to single administration” value in data set [2] (setting [6]) was 36%; in data set [4] (setting [11]) it was 62%. Besides, the “Cmax (geometric mean)” value in data set [2] (10 mg lemborexant in combination with itraconazole 200 mg once per day, plasma) is recorded as 73.9 ng/mL; in data set [2] (setting [9]), 54.3 ng/mL; in data set [4] (10 mg lemborexant in combination with fluconazole 200 mg once per day, plasma), 88.3 ng/mL; in data set [4] (setting [9]), 54.4 ng/mL. For the same compound, the AUC(0-inf) is 433 ng·h/mL in data set [2] (setting [7]); 146 ng·h/mL in data set [3] (5 mg, single administration of 5 mg lemborexant, healthy adults, read-out: AUC(0-inf), Geometric mean); 149 ng·h/mL in data set [3] (5 mg, single administration of 5 mg lemborexant, healthy adults, read-out: AUC(0-inf), Mean); 139 ng·h/mL in data set [3] (5 mg, single administration of 5 mg lemborexant, healthy adults, read-out: AUC(0-inf), Median); 123 ng·h/mL in data set [3] (5 mg, single administration of 5 mg lemborexant, healthy adults, read-out: AUC(0-inf), Minimum value); 209 ng·h/mL in data set [3] (5 mg, single administration of 5 mg lemborexant, healthy adults, read-out: AUC(0-inf), maximum value). Besides, the AUC(0-inf) in data set [3] (5 mg, single dose of 5 mg lemborexant, read-out: AUC (0-inf), lower limit value of the 95% confidence interval) was 113 ng·h/mL; in data set [3] (5 mg, single dose of 5 mg lemborexant, read-out: AUC (0-inf), upper limit value of the 95% confidence interval), 189 ng·h/mL; in data set [3] (10 mg, single administration of 10 mg lemborexant, healthy adults, read-out: AUC(0-inf), Geometric mean) it was 299 ng·h/mL; in data set [3] (10 mg, single administration of 10 mg lemborexant, healthy adults, read-out: AUC(0-inf), Mean), 311 ng·h/mL; in data set [3] (10 mg, single administration of 10 mg lemborexant, healthy adults, read-out: AUC(0-inf), Median), 314 ng·h/mL; in data set [3] (10 mg, single administration of 10 mg lemborexant, healthy adults, read-out: AUC(0-inf), Minimum value), 188 ng·h/mL. Also, the AUC(0-inf) in data set [3] (10 mg, single administration of 10 mg lemborexant, healthy adults, read-out: AUC(0-inf), maximum value) is 409 ng·h/mL; in data set [3] (10 mg, single dose of 10 mg lemborexant, read-out: AUC (0-inf), lower limit value of the 95% confidence interval), 216 ng·h/mL; in data set [3] (10 mg, single dose of 10 mg lemborexant, read-out: AUC (0-inf), upper limit value of the 95% confidence interval) it was 414 ng·h/mL; in data set [3] (dose 5 to 10 mg, lower 95% CI limit Table 9 (5 mg) to upper 95% CI limit Table 4 (10 mg), read-out: mean AUC (0-inf) achieved), 113 to 537 ng·h/mL; in data set [4] (setting [7]), 374 ng·h/mL; in data set [5] (setting [15]) it was 308 to 445 ng·h/mL. In addition, the AUC(0-inf) in data set [5] (setting [16]) was 374 to 533 ng·h/mL; in data set [5] (2.5 mg lemborexant with moderate or strong CYP3A inhibitor, lower 95% CI limit with fluconazole to upper 95% CI limit with itraconazole) it was 308 to 533 ng·h/mL. Also, the “AUC(0-inf) ratio of (d) to (c)” value in data set [2] (setting [8]) is listed as 3.70. Moreover, the “Cmax ratio of (d) to (c)” value in data set [2] (setting [8]) is 1.36. The “exposure until 9 hours after administration as proportion of the AUC (0-inf)” value in data set [3] (setting [10]) was “about 45%”. The “exposure until 9 hours after administration as proportion of the exposure until 24 hours” value in data set [3] (setting [10]) is “about 75%”. The “increase of geometric mean Cmax relative to dose” value in data set [3] (dose of 10 mg or more) is “slightly lower than the dose ratio”. Moreover, in data set [3] (examined dose range 1 to 200 mg), the “dose dependence of the mean AUC (0-24 h)” value is reported as “approximately dose proportionality”. Further, the Cmax in data set [3] (5 mg, single administration of 5 mg lemborexant, healthy adults, read-out: Cmax, Geometric mean) amounted to 22.3 ng/mL; in data set [3] (5 mg, single administration of 5 mg lemborexant, healthy adults, read-out: Cmax, Mean), 22.7 ng/mL; in data set [3] (5 mg, single administration of 5 mg lemborexant, healthy adults, read-out: Cmax, Median) it was 21.9 ng/mL; in data set [3] (5 mg, single administration of 5 mg lemborexant, healthy adults, read-out: Cmax, Minimum value), 17.2 ng/mL; in data set [3] (5 mg, single administration of 5 mg lemborexant, healthy adults, read-out: Cmax, maximum value), 30 ng/mL; in data set [3] (5 mg, single dose of 5 mg lemborexant, read-out: Cmax, lower limit value of the 95% confidence interval), 18.3 ng/mL. Moreover, the Cmax was determined as 27.3 ng/mL in data set [3] (5 mg, single dose of 5 mg lemborexant, read-out: Cmax, upper limit value of the 95% confidence interval); 32 ng/mL in data set [3] (10 mg, single administration of 10 mg lemborexant, healthy adults, read-out: Cmax, Geometric mean); 36 ng/mL in data set [3] (10 mg, single administration of 10 mg lemborexant, healthy adults, read-out: Cmax, Mean); 31.4 ng/mL in data set [3] (10 mg, single administration of 10 mg lemborexant, healthy adults, read-out: Cmax, Median); 16.9 ng/mL in data set [3] (10 mg, single administration of 10 mg lemborexant, healthy adults, read-out: Cmax, Minimum value); 62.1 ng/mL in data set [3] (10 mg, single administration of 10 mg lemborexant, healthy adults, read-out: Cmax, maximum value). The Cmax was 18.3 ng/mL in data set [3] (10 mg, single dose of 10 mg lemborexant, read-out: Cmax, lower limit value of the 95% confidence interval); 16.5 to 56 ng/mL in data set [3] (dose 5 to 10 mg, lower limit for 5 mg with weak CYP3A inhibitor to upper 95% CI limit Table 8 (10 mg), read-out: mean Cmax achieved); 18.1 to 26.9 ng/mL in data set [5] (setting [15]); 17 to 21.1 ng/mL in data set [5] (setting [16]); 17 to 26.9 ng/mL in data set [5] (2.5 mg, 2.5 mg lemborexant with moderate or strong CYP3A inhibitor, lower 95% CI limit with itraconazole to upper 95% CI limit with fluconazole). In data set [3] (single dose of 10 mg lemborexant), the “Cmax, upper limit value of the 95% confidence interval” value is given as 56.0 ng/mL. Moreover, in data set [3] (single doses 1 to 200 mg, healthy adults), the “elimination profile of plasma concentration after administration” value is reported as “biphasic elimination”. For the same compound, in data set [4] (setting [12]), the “AUC(0-inf) ratio of (b) to (a)” value is 4.17. Besides, the “Cmax ratio of (b) to (a)” value in data set [4] (setting [12]) turned out to be 1.62. Also, the “AUC(0-inf), predicted value (geometric mean)” value in data set [5] (setting [13]) is 370 ng·h/mL; in data set [5] (setting [14]), 447 ng·h/mL. Further, the figures for the “Cmax, predicted value (geometric mean)” value in data set [5] (setting [13]) and in data set [5] (setting [14]) were 22.1 ng/mL and 18.9 ng/mL, respectively. In addition, the “predicted mean AUC (0-inf) lower than mean AUC (0-inf) of single 10 mg dose” value in data set [5] (setting [13]) is recorded as 1.1%. Also, the “predicted mean Cmax lower than mean Cmax of single 10 mg dose” value in data set [5] (setting [13]) is listed as 59.4%. Further, in data set [5] (setting [14]), the “predicted mean AUC (0-inf) higher than mean AUC (0-inf) of single 10 mg dose” value was 32%.

In the case of `CCC(C)n1ncn(-c2ccc(N3CCN(c4ccc(OCC5COC(Cn6cncn6)(c6ccc(Cl)cc6Cl)O5)cc4)CC3)cc2)c1=O` (stereo not shown) [Itraconazole, itraconazole], the “Classification of CYP3A inhibiting action of drug used in combination” value in data set [1] is reported as “Strongly”.
